How the values were obtained:
[1] = biological target: T1, GST-MKK3 and full-length VF-MYC interaction (Homo sapiens, UniProt P46734); assay: dose-response cell lysate-based TR-FRET assay; assay type: binding; settings: for inhibition of MKK3-MYC PPI in dose-response TR-FRET: up to 100 µM compound
T1 sequence (P46734 1-347): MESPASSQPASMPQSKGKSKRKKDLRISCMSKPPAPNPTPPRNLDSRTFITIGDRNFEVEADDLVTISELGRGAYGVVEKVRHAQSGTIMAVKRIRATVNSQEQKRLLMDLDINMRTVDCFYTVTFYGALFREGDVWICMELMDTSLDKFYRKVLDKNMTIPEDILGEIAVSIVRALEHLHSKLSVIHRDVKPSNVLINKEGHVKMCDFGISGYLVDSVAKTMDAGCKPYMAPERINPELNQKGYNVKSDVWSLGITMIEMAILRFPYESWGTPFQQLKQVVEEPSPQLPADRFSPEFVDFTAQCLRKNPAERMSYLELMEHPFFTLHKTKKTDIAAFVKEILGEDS

[2] = tested on: MYC, CDK4 and PD-L1 level in HCT116 cells; assay: Western blot of MYC and MYC-target genes; assay type: cell-based; settings: RG108 up to 10 µM
[3] = tested on: MYC transcriptional activity in HCT116 cells; assay: luciferase-based MYC reporter assay; assay type: cell-based; settings: HCT116 cells expressing VF-MKK3; 0.5 to 5 µM, 12 hours
MKK3-MYC PPI = biological target: T2, MKK3-MYC PPI (Homo sapiens, UniProt P46734); assay: GST pull-down PPI inhibition assay, compound-treated HEK293T lysates; assay type: binding; settings: lysates treated with 50 µM
T2 sequence (P46734 1-347): T1 sequence (P46734 1-347)

MKK3-p38 PPI = biological target: T3, MKK3-p38 PPI (Homo sapiens, UniProt P46734); assay: as above; assay type: binding; settings: up to 50 µM
T3 sequence (P46734 1-347): T1 sequence (P46734 1-347)

MYC-MAX PPI = MYC-MAX PPI (Homo sapiens, UniProt P01106); assay: as above; assay type: binding; settings: up to 50 µM
[4] = biological target: T4, GST-MKK3 association with endogenous MYC in HCT116 cells (Homo sapiens, UniProt P46734); assay: GST pull-down from compound-treated cells; assay type: cell-based; settings: HCT116 cells treated with increased concentration
T4 sequence (P46734 1-347): T1 sequence (P46734 1-347)

[5] = tested on: phosphorylation of MKK3 substrate p38 in HEK293T cells; assay: p38 phosphorylation in compound-treated cells; assay type: cell-based; settings: HEK293T cells incubated with compound
[6] = tested on: MYC level in MDA-MB-468 cells; assay: Western blot of MYC level; assay type: cell-based; settings: increasing concentration
[7] = tested on: MYC transcriptional activity in MDA-MB-468 cells; assay: luciferase-based MYC reporter assay; assay type: cell-based; settings: MDA-MB-468 cells expressing VF-MKK3; 0.5 to 5 µM, 12 hours
Renilla luciferase = assay: luciferase interference control; assay type: cell-based; settings: cells treated with 10 µM, vs DMSO control

MYC-MAX PPI, sequence (P01106 16-454): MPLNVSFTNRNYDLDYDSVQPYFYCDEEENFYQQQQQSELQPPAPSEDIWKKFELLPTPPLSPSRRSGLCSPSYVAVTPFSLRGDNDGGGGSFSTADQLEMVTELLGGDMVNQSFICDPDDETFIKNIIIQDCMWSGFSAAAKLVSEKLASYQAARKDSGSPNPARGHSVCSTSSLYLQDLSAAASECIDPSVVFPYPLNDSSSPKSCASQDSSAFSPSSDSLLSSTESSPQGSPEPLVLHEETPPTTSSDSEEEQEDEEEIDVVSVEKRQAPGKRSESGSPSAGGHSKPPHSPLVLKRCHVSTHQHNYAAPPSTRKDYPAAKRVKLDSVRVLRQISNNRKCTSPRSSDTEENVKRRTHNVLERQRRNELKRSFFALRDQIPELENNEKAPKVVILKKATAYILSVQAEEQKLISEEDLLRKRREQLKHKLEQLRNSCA

Compound | inhibition of MKK3-MYC PPI in dose-response TR-FRET [1] | level of MYC and MYC-target genes (CDK4, PD-L1) [2] | MKK3-induced MYC transcriptional activity, reporter assay [3] | IC50 [1] [µM] | inhibition of MKK3-MYC PPI in GST pull-down (MKK3-MYC PPI) | suppression of MKK3-p38 PPI in GST pull-down (MKK3-p38 PPI) | suppression of MYC-MAX PPI in GST pull-down (MYC-MAX PPI) | association of GST-MKK3 with endogenous MYC [4] | phosphorylation of MKK3 substrate p38 [5] | MYC level [6] | MKK3-induced MYC transcriptional activity, reporter assay [7] | Renilla luciferase activity (Renilla luciferase)
O=C(O)[C@H](Cc1c[nH]c2ccccc12)N1C(=O)c2ccccc2C1=O [RG108] | does not interfere | did not suppress | not suppressed |  |  |  |  |  |  |  |  | 
Cc1cc(Nc2ccc(NC(=O)c3ccc(Nc4ccnc5ccccc45)cc3)cc2)nc(N)n1 [SGI-1027, N-[4-[(2-Amino-6-methylpyrimidin-4-yl)amino]phenyl]-4-(quinolin-4-ylamino)benzamide] |  | substantial decrease | diminished | 8 | confirmed the inhibition | did not observe a significant suppression | did not observe a significant suppression | decreased association | did not decrease | decreased proportionally | diminished | did not observe a decrease
Cc1cc2c(C(C)C)c(O)c(O)c(C=O)c2c(O)c1-c1c(C)cc2c(C(C)C)c(O)c(O)c(C=O)c2c1O [AT101, (−)-1,1’,6,6’,7,7’-Hexahydroxy-3,3’-dimethyl-5,5’-bis(1-methylethyl)-[2,2’-binaphthalene]-8,8’dicarboxaldehyde] | did not demonstrate detectable inhibition |  |  |  |  |  |  |  |  |  |  | 
